# Measurements from publication PMC8704606, “The Artemiside-Artemisox-Artemisone-M1 Tetrad: Efficacies against Blood Stage P. falciparum Parasites, DMPK Properties, and the Case for Artemiside” (Pharmaceutics, 2021).
# Like-named read-outs stand apart in the source and are kept apart here.
# Experiments:
# [1] = test system: asexual blood stages of Pf W2 (drug resistant); parameters: method as in PMID 29866868, PMID 31998692; details: cited from earlier work; for IC50: asexual blood stage Pf W2, multidrug resistant, SYBR Green I, ± SEM
# [2] = test system: late-stage (LG) Pf NF54 gametocytes; parameters: method as in PMID 29866868; details: late-stage gametocytes >90% stages IV-V; 48 h incubation; ± SEM; cited from earlier work
# [3] = test system: asexual blood stages of Pf NF54 (drug sensitive); parameters: method as in PMID 29866868, PMID 31998692; details: asexual blood stage Pf NF54, CQ sensitive; SYBR Green I; ± SEM; cited from earlier work
# P. berghei sporozoites = details: cited from earlier work; for Maximum inhibition % P. berghei sporozoites: ref S3; for IC50: luciferase-expressing P. berghei ANKA GFP-Luc-SMcon sporozoites in HepG2 cells, 48 h, ± SD, ref S3 (7)
# [4] = test system: asexual blood stages of Pf K1 (drug resistant); parameters: method as in PMID 29866868, PMID 31998692; details: cited from earlier work; for IC50: asexual blood stage Pf K1, multidrug resistant, SYBR Green I, ± SEM
# [5] = parameters: method as in PMID 34097488; details: cited from earlier work
# [6] = test system: early-stage (EG) Pf NF54 gametocytes; parameters: method as in PMID 29866868; details: early-stage gametocytes >95% stages II-III; 48 h incubation; ± SEM; cited from earlier work
# [7] = test system: type II tachyzoites (PRU-Luc-GFP); details: sc 10 mg/kg/d for 8 days; cited from earlier work
# [8] = test system: TM93-C1088 (atovaquone and CQ resistant); parameters: method as in ref S2; details: [3H]-hypoxanthine assay; ref S2; read-out: Antimalarial activities IC50 TM93-C1088; cited from earlier work
# HepG2 = details: cited from earlier work; for SI = EC50 HepG2/IC50 P. berghei sporozoites: ref S3
# [9] = test system: TM91-C235 (CQ and MFQ resistant); parameters: method as in ref S2; details: [3H]-hypoxanthine assay; ref S2; read-out: Antimalarial activities IC50 TM91-C235; cited from earlier work
# 7G8 (CQ resistant) = test system: 7G8 (CQ resistant); parameters: method as in ref S2; details: [3H]-hypoxanthine assay; ref S2; read-out: Antimalarial activities IC50 7G8; cited from earlier work
# TM-C2B = test system: TM-C2B; parameters: method as in ref S2; details: [3H]-hypoxanthine assay; ref S2; read-out: Antimalarial activities IC50 TM-C2B; cited from earlier work
# W2 (CQ resistant) = test system: W2 (CQ resistant); parameters: method as in ref S2; details: [3H]-hypoxanthine assay; ref S2; read-out: Antimalarial activities IC50 W2; cited from earlier work
# [10] = Cytotoxicity (LDH assay) against HepG2 cells; type: cell-based; details: human
# Experimental: Cytotoxicity against mammalian hepatocellular carcinoma cells (HepG2 cells) was determined using the lactate dehydrogenase assay (LDH, Biovision Inc., Milpitas, CA, USA). […] Compound working solutions were prepared from 10 mM stock solutions (100% DMSO) in complete DMEM to a final DMSO (Sigma-Aldrich) conc. of <0.1% (vol/vol). […] Data analysis was performed using GraphPad Prism (version 6) software.
# D6 (CQ sensitive) = test system: D6 (CQ sensitive); parameters: method as in ref S2; details: [3H]-hypoxanthine assay; ref S2; read-out: Antimalarial activities IC50 D6; cited from earlier work
# [11] = test system: fetal rat brain stem cells; details: ref S4 (24), cited from earlier work
# P. falciparum W2 = test system: P. falciparum W2; parameters: method as in ref S3; details: [3H]-hypoxanthine assay; ref S3; cited from earlier work
# [12] = test system: P. falciparum asexual blood stage artemisinin-resistant clone ARC08-22 (4G) carrying the PfKI3 C580Y mutation; parameters: method as in ref S3; details: ref S3, cited from earlier work
# [13] = test system: Chinese hamster ovary (CHO) cells; parameters: method as in PMID 29866868, PMID 31998692; details: other cell lines including CHO cells; read-out: EC50 cytotoxicity; cited from earlier work
# [14] = test system: P. falciparum asexual blood stage artemisinin-resistant clone PL08-009 (5C) carrying the PfKI3 C580Y mutation; parameters: method as in ref S3; details: ref S3, cited from earlier work
# [15] = effect on the cytoskeleton on day 7
structure (smiles),measurement,setting,value
"CO[C@H]1O[C@@H]2O[C@@]3(C)CC[C@H]4[C@H](C)CC[C@@H]([C@H]1C)[C@@]24OO3 [Artemether 3, Artemether]",IC50,[1],7 ± 1 nM
same,RI = IC50 W2/IC50 NF54,[1],3.8
same,IC50,[2],136 ± 85.9 nM
same,IC50,[3],1.86 ± 0.17 nM
same,Maximum inhibition % P. berghei sporozoites,P. berghei sporozoites; at 10 µM,49.4%
same,IC50,P. berghei sporozoites,> 104 nM
same,IC50,P. berghei sporozoites; listed as artemether 3,> 10000 nM
same,IC50,[4],9 ± 2 nM
same,RI (resistance index) = IC50 K1/IC50 NF54,[4],4.8
same,F% (oral bioavailability),[5],2%
same,Cmax,"[5]; oral administration, same dose, same murine model",600 nM
same,IC50,[6],37.7 ± 2 nM
"C[C@@H]1CC[C@H]2[C@@H](C)C(=O)O[C@@H]3O[C@@]4(C)CC[C@@H]1[C@]32OO4 [Artemisinin 1, Artemisinin, reference compound]","mice surviving the infection, acute phase",[7],all mice treated with artemisinin succumbed to infection
O=C1C(O)=C([C@H]2CC[C@H](c3ccc(Cl)cc3)CC2)C(=O)c2ccccc21 [Atovaquone],IC50,[8],18800 nM
same,EC50,HepG2,> 250 nM
same,SI = EC50 HepG2/IC50 P. berghei sporozoites,HepG2,> 100
same,IC50,[9],2.2 ± 0.7 nM
same,Maximum inhibition % P. berghei sporozoites,P. berghei sporozoites; at 0.5 µM,94.85±2.76%
same,IC50,P. berghei sporozoites,2.52 ± 0.997 nM
same,IC50,7G8 (CQ resistant),3.1 ± 0.9 nM
same,IC50,TM-C2B,31800 nM
CCN(CC)CCCC(C)Nc1ccnc2cc(Cl)ccc12 (stereo not shown) [Chloroquine],IC50,[8],360 ± 38 nM
same,IC50,[3],10 ± 3 nM
same,IC50,W2 (CQ resistant),195 ± 70 nM
same,IC50,[9],70 ± 12 nM
same,IC50,7G8 (CQ resistant),84 ± 18 nM
same,IC50 at 24 h,[10],58400 nM
same,IC50,[4],154 ± 14 nM
same,IC50,TM-C2B,95 ± 23 nM
same,IC50,D6 (CQ sensitive),16 ± 2 nM
"C[C@H]1[C@@H](O)O[C@@H]2O[C@@]3(C)CC[C@H]4[C@H](C)CC[C@@H]1[C@@]24OO3 [DHA 2, Dihydroartemisinin]",IC50,[8],1.4 ± 0.4 nM
same,ATP IC50,[11]; ATP levels 1 day after initial administration,0.08 µg/mL
same,Neurofilaments IC50,[11]; [15],0.01 µg/mL
same,Neurofilaments NOEC,[11]; [15],< 0.001 µg/mL
same,Viability IC50,"[11]; neuron-specific enolase activity, 7 days exposure",5.0 µg/mL
same,IC50,[1],1.74 ± 0.22 nM
same,RI = IC50 W2/IC50 NF54,[1],0.7
same,IC50,[2],33.7 ± 1.98 nM
same,IC50,[3],2.51 ± 0.19 nM
same,IC50,W2 (CQ resistant),2.2 ± 0.8 nM
same,IC50,[9],2.3 ± 0.7 nM
same,IC50,7G8 (CQ resistant),1.3 ± 0.2 nM
same,IC50,P. falciparum W2,4.58 nM
same,IC90,P. falciparum W2,10.3 nM
same,IC50,"[12]; 48 h life cycle, PfKI3 C580Y",6.68 nM
same,IC90,"[12]; 48 h life cycle, PfKI3 C580Y",15.4 nM
same,RI = IC50 for ARC08-22(4G)/IC50 for W2,[12],1.5
same,IC50,[4],1.51 ± 0.33 nM
same,RI (resistance index) = IC50 K1/IC50 NF54,[4],0.6
same,IC50,TM-C2B,2 ± 0.7 nM
same,EC50,[13],25200 nM
same,IC50,D6 (CQ sensitive),1.7 ± 0.4 nM
same,IC50,"[14]; 36 h life cycle, PfKI3 C580Y",6.41 nM
same,IC90,"[14]; 36 h life cycle, PfKI3 C580Y",10.7 nM
same,RI = IC50 for PL08-09 (5C)/IC50 for W2,[14],1.4
same,IC50,[6],43 ± 3.9 nM
OC(c1cc(C(F)(F)F)nc2c(C(F)(F)F)cccc12)C1CCCCN1 (stereo not shown) [Mefloquine],IC50,[8],16 ± 5 nM
same,IC50,[9],107 ± 41 nM
same,IC50,7G8 (CQ resistant),5.4 ± 1.7 nM
same,IC50,TM-C2B,130 ± 51 nM
CN(C)c1ccc2nc3ccc(=[N+](C)C)cc-3sc2c1 [Methylene Blue],IC50,[2],143 ± 16.7 nM
same,IC50,[3],5 ± 0.8 nM
same,IC50,[6],95 ± 11.3 nM
"COc1ccc(C[C@H](N)C(=O)N[C@H]2[C@@H](O)[C@H](n3cnc4c(N(C)C)ncnc43)O[C@@H]2CO)cc1 [Puromycin, reference compound]",EC50,HepG2,117 nM
same,SI = EC50 HepG2/IC50 P. berghei sporozoites,HepG2,5.15
same,Maximum inhibition % P. berghei sporozoites,P. berghei sporozoites; at 5 µM,110±4.24%
same,IC50,P. berghei sporozoites,22.7 ± 4.53 nM
